pIC50: −log10 of the molar value.
What was measured:
[1] = molecular target: T1, AKT2 (Homo sapiens, UniProt P31751); assay: In vitro ADP-Glo kinase assay, AKT2; format: biochemical
T1 construct: purchased Promega
Description: Subsequently, each well was added with ADP-Glo reagent and incubated for another 40 min. After completion of the kinase reaction, each well was added with kinase activity detection reagent and then incubated for 30 min. Liquid was dispensed with I.DOT (Dispendix, Stuttgart, Germany). Luminescence was measured on a Centro LB 960 microplate luminometer (Berthold Technologies).

[2] = system: p-MET; assay: Immunoblot p-MET with NAC pretreatment, HCC827 and HCC827GR cells; format: cell-based, human; details: for p-MET protein Ratio: control = 1.00
Description: (§1) HaCaT cells were grown in DMEM, whereas HCC827 and HCC827GR cells were grown in RPMI 1640. All culture media were supplemented with FBS (10 %) and P/S (1 %), and the cells were grown at 37 °C in 5 % CO2.
(§2) Cells were lysed in RIPA buffer, and protein concentration was determined using a Bio-Rad DC Protein Assay kit (Bio-Rad, Hercules, CA, USA). Protein samples from the cell lysates were resolved by sodium dodecyl sulfate-polyacrylamide gel electrophoresis and then transferred onto polyvinylidene fluoride membranes. The membranes were blocked with 3 % or 5 % skim milk and then incubated at 4 °C overnight with the indicated primary antibodies, followed by the corresponding horseradish peroxidase-conjugated secondary antibodies at RT for 2 h. Protein bands were visualized using western blotting luminol reagent solution and ImageQuant LAS 500 (GE Healthcare, Uppsala, Sweden). The density of the bands was quantified using ImageJ software (NIH, Bethesda, MD, USA).

[3] = system: cytochrome c (mitochondrial); assay: Immunoblot mitochondrial cytochrome c in HCC827 and HCC827GR cells; format: cell-based, human; details: for cyto c (mitosol) protein Ratio: DBG 0 nM = 1.00
Description: as §2
(§3) The cells were suspended in plasma membrane extraction buffer [250 mM sucrose, 10 mM HEPES (pH 8.0), 10 mM KCl, 1.5 mM MgCl2• 6H2O, 1 mM EGTA, 1 mM EDTA, 0.1 mM PMSF, 0.01 mg/ml aprotinin, and 0.01 mg/ml leupeptin], and 0.1 % digitonin was added for vortexing (1 min). The supernatant was collected as the cytosolic fraction. The pellet was resuspended in plasma membrane extraction buffer containing 0.5 % Triton X-100. The lysates were centrifuged at 13,000 rpm for 30 min to separate the mitochondrial fraction.

[4] = system: HCC827 cells; assay: Cell cycle distribution (Muse, PI), HCC827; format: cell-based, human; details: 48 h
Description: as §1
Cell cycle distribution analysis was performed using a Muse™ Cell Cycle Kit (MCH100106, Merck Millipore, Billerica, MA) based on propidium iodide (PI) staining. The cells were collected, fixed in 70 % ethanol overnight at -20 °C, and then stained with a Muse™ Cell Cycle Reagent at RT for 30 min in the dark. The cell cycle distribution was measured using a Muse™ Cell Analyzer (Merck Millipore).

[5] = system: cytochrome c (cytosol); assay: Immunoblot cytosolic cytochrome c in HCC827 and HCC827GR cells; format: cell-based, human
Description: as §2, §3

[6] = system: p-MET (Y1234/1235); assay: Western blot p-MET (Y1234/1235) in HCC827 and HCC827GR cells; format: cell-based, human; details: DBG 3, 6, 12 nM, 48 h
Description: as §1, §2

[7] = system: HCC827 cells; assay: Soft agar anchorage-independent growth, HCC827; format: cell-based, human; details: 2 weeks
Description: The anchorage-independent cell growth assay was performed in 6-well plates with dual agar layers containing 0.6 % agar (lower layer) and 0.3 % agar (upper layer) supplemented with BME, 2 mM L-glutamine, 5 μg/ml gentamicin, and 10 % FBS. After 2 weeks of incubation, the number of colonies was assessed using a microscope (Leica, Wetzlar, Germany), and the mean colony area was analyzed using i-Solution ^TM software (Vancouver, BC, Canada).

[8] = system: HCC827GR cells; assay: Intracellular ROS (Muse Oxidative Stress Kit), HCC827GR; format: cell-based, human; details: 48 h, control 16.69 %
Description: as §1
The levels of intracellular ROS were measured using a Muse™ Oxidative Stress Kit (MCH100111, Merck Millipore) in accordance with the manufacturer's instructions. The cells were incubated with a Muse™ Oxidative Stress Reagent working solution in the dark at 37 °C for 30 min. Intracellular ROS generation was measured using a Muse™ Cell Analyzer.

T1 sequence (P31751 whole entry): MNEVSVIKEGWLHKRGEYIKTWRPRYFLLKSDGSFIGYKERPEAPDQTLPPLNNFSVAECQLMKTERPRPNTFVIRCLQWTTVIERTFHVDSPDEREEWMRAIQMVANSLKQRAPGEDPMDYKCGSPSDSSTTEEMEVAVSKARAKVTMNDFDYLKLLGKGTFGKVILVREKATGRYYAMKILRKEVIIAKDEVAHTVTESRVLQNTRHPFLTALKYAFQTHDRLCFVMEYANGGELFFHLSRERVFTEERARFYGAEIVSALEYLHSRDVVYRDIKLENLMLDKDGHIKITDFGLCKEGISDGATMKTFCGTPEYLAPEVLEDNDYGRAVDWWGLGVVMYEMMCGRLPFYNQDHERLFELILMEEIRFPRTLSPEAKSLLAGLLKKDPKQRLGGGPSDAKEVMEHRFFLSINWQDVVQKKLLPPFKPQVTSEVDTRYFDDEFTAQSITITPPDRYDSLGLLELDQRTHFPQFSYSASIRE

With `COc1ccc(C[C@H]2C(=O)N[C@@H](C)C(=O)N(C)[C@H]3Cc4ccc(cc4)Oc4cc(ccc4O[C@@H]4O[C@H](CO)[C@@H](O)[C@H](O)[C@H]4O)C[C@@H](C(=O)N[C@H](C)C(=O)N[C@@H](C)C(=O)N2C)N(C)C3=O)cc1` [DBG, deoxybouvardin glucoside] the pIC50 ([1]; ADP-Glo, AKT2 5 ng, RT, 60 min, luminescence, n=3) was 7.95, the “kinase activity, in words” value ([1]; DBG 3, 6, 12 nM) was “significantly inhibited” and the p-MET protein/actin ([2]; HCC827, DBG 12 nM, control 1.17) was 0.27. For the same compound, the “p-MET protein Ratio” value ([2]; HCC827, DBG 12 nM) was 0.23, the p-MET protein/actin ([2]; HCC827, NAC 4 mM + DBG 12 nM, control 1.17) was 0.40 and the “p-MET protein Ratio” value ([2]; HCC827, NAC 4 mM + DBG 12 nM) was 0.34. The p-MET protein/actin ([2]; HCC827GR, DBG 12 nM, control 1.14) was 0.44, the “p-MET protein Ratio” value ([2]; HCC827GR, DBG 12 nM) was 0.39 and the p-MET protein/actin ([2]; HCC827GR, NAC 4 mM + DBG 12 nM, control 1.14) was 0.21. The “p-MET protein Ratio” value ([2]; HCC827GR, NAC 4 mM + DBG 12 nM) was 0.18, the “DBG-decreased phosphorylation of MET with NAC” value ([2]; NAC 4 mM pretreatment, DBG 48 h) was “did not change” and the “cyto c (mitosol) cyto c/COX4/actin (A)” value ([3]; HCC827, DBG 3 nM, DBG 0 nM 119.45) was 66.38. For the same compound, the “cyto c (mitosol) protein Ratio” value ([3]; HCC827, DBG 3 nM) was 0.56, the “cyto c (mitosol) cyto c/COX4/actin (A)” value ([3]; HCC827, DBG 6 nM, DBG 0 nM 119.45) was 25.00 and the “cyto c (mitosol) protein Ratio” value ([3]; HCC827, DBG 6 nM) was 0.21. The “cyto c (mitosol) cyto c/COX4/actin (A)” value ([3]; HCC827, DBG 12 nM, DBG 0 nM 119.45) was 23.24, the “cyto c (mitosol) protein Ratio” value ([3]; HCC827, DBG 12 nM) was 0.19 and the “cyto c (mitosol) cyto c/COX4/actin (A)” value ([3]; HCC827GR, DBG 3 nM, DBG 0 nM 168.86) was 137.25. For the same compound, the “cyto c (mitosol) protein Ratio” value ([3]; HCC827GR, DBG 3 nM) was 0.81, the “cyto c (mitosol) cyto c/COX4/actin (A)” value ([3]; HCC827GR, DBG 6 nM, DBG 0 nM 168.86) was 47.89 and the “cyto c (mitosol) protein Ratio” value ([3]; HCC827GR, DBG 6 nM) was 0.28. The “cyto c (mitosol) cyto c/COX4/actin (A)” value ([3]; HCC827GR, DBG 12 nM, DBG 0 nM 168.86) was 7.39, the “cyto c (mitosol) protein Ratio” value ([3]; HCC827GR, DBG 12 nM) was 0.0438 and the G0/G1 distribution ([4]; DBG 3 nM, mean of 3 samples) was 61.33. It also gave a G2/M distribution ([4]; DBG 3 nM, mean of 3 samples) of 31.20, a S distribution ([4]; DBG 3 nM, mean of 3 samples) of 7.47 and a G0/G1 distribution ([4]; DBG 3 nM, sample 1) of 60.80. The G2/M distribution ([4]; DBG 3 nM, sample 1) was 31.60, the S distribution ([4]; DBG 3 nM, sample 1) was 7.60 and the G0/G1 distribution ([4]; DBG 3 nM, sample 2) was 61.70. For the same compound, the G2/M distribution ([4]; DBG 3 nM, sample 2) was 31.40, the S distribution ([4]; DBG 3 nM, sample 2) was 6.90 and the G0/G1 distribution ([4]; DBG 3 nM, sample 3) was 61.50. The G2/M distribution ([4]; DBG 3 nM, sample 3) was 30.60, the S distribution ([4]; DBG 3 nM, sample 3) was 7.90 and the G0/G1 distribution ([4]; DBG 6 nM, mean of 3 samples) was 64.27. It also gave a G2/M distribution ([4]; DBG 6 nM, mean of 3 samples) of 28.30, a S distribution ([4]; DBG 6 nM, mean of 3 samples) of 7.43 and a G0/G1 distribution ([4]; DBG 6 nM, sample 1) of 65.20. The G2/M distribution ([4]; DBG 6 nM, sample 1) was 27.50, the S distribution ([4]; DBG 6 nM, sample 1) was 7.30 and the G0/G1 distribution ([4]; DBG 6 nM, sample 2) was 63.60. The G2/M distribution ([4]; DBG 6 nM, sample 2) was 28.30, the S distribution ([4]; DBG 6 nM, sample 2) was 8.10 and the G0/G1 distribution ([4]; DBG 6 nM, sample 3) was 64.00. For the same compound, the G2/M distribution ([4]; DBG 6 nM, sample 3) was 29.10, the S distribution ([4]; DBG 6 nM, sample 3) was 6.90 and the G0/G1 distribution ([4]; DBG 12 nM, mean of 3 samples) was 74.37. It also gave a G2/M distribution ([4]; DBG 12 nM, mean of 3 samples) of 19.80, a S distribution ([4]; DBG 12 nM, mean of 3 samples) of 5.83 and a G0/G1 distribution ([4]; DBG 12 nM, sample 1) of 73.00. For the same compound, the G2/M distribution ([4]; DBG 12 nM, sample 1) was 21.00, the S distribution ([4]; DBG 12 nM, sample 1) was 6.00 and the G0/G1 distribution ([4]; DBG 12 nM, sample 2) was 75.10. For the same compound, the G2/M distribution ([4]; DBG 12 nM, sample 2) was 19.40, the S distribution ([4]; DBG 12 nM, sample 2) was 5.50 and the G0/G1 distribution ([4]; DBG 12 nM, sample 3) was 75.00. For the same compound, the G2/M distribution ([4]; DBG 12 nM, sample 3) was 19.00, the S distribution ([4]; DBG 12 nM, sample 3) was 6.00 and the “cyto c (cytosol) cyto c/β-tubulin/actin (A)” value ([5]; HCC827, DBG 3 nM, DBG 0 nM 12.22) was 16.55. The “cyto c (cytosol) protein Ratio” value ([5]; HCC827, DBG 3 nM, relative to DBG 12 nM = 1.00, DBG 0 nM 0.18) was 0.25, the “cyto c (cytosol) cyto c/β-tubulin/actin (A)” value ([5]; HCC827, DBG 6 nM, DBG 0 nM 12.22) was 47.59 and the “cyto c (cytosol) protein Ratio” value ([5]; HCC827, DBG 6 nM, relative to DBG 12 nM = 1.00, DBG 0 nM 0.18) was 0.72. For the same compound, the “cyto c (cytosol) protein Ratio” value ([5]; HCC827, DBG 12 nM (reference of the ratio, 1.00), DBG 0 nM 0.18) was 1.00, the “cyto c (cytosol) cyto c/β-tubulin/actin (A)” value ([5]; HCC827, DBG 12 nM, DBG 0 nM 12.22) was 66.24 and the “cyto c (cytosol) cyto c/β-tubulin/actin (A)” value ([5]; HCC827GR, DBG 3 nM, DBG 0 nM 5.99) was 33.57. For the same compound, the “cyto c (cytosol) protein Ratio” value ([5]; HCC827GR, DBG 3 nM, relative to DBG 12 nM = 1.00, DBG 0 nM 0.07) was 0.41, the “cyto c (cytosol) cyto c/β-tubulin/actin (A)” value ([5]; HCC827GR, DBG 6 nM, DBG 0 nM 5.99) was 49.49 and the “cyto c (cytosol) protein Ratio” value ([5]; HCC827GR, DBG 6 nM, relative to DBG 12 nM = 1.00, DBG 0 nM 0.07) was 0.60. For the same compound, the “cyto c (cytosol) protein Ratio” value ([5]; HCC827GR, DBG 12 nM (reference of the ratio, 1.00), DBG 0 nM 0.07) was 1.00, the “cyto c (cytosol) cyto c/β-tubulin/actin (A)” value ([5]; HCC827GR, DBG 12 nM, DBG 0 nM 5.99) was 82.76 and the cytochrome c release ([5]; NSCLC cells, DBG, cytosolic and mitochondrial fractions) was “released from the mitochondria”. The “phosphorylation level of MET” value [6] was “decreased”, the “colony number, Control %” value ([7]; DBG 3 nM) was 58.65% and the “colony size, Control %” value ([7]; DBG 3 nM) was 78.77%. For the same compound, the “colony number, Control %” value ([7]; DBG 6 nM) was 34.62%, the “colony size, Control %” value ([7]; DBG 6 nM) was 57.75% and the “colony number, Control %” value ([7]; DBG 12 nM) was 0.00%. The “colony size, Control %” value ([7]; DBG 12 nM) was 0.00%, the ROS level ([8]; DBG 3 nM) was 36.89% and the ROS level ([8]; DBG 6 nM) was 39.97%. It also gave an ROS level ([8]; DBG 12 nM) of 47.92%.

— paper PMC11579512, “Deoxybouvardin-glucoside induces apoptosis in non-small cell lung cancer cells by targeting EGFR/MET and AKT signaling pathway” (EXCLI Journal, 2024)
